Measurements taken from article PMC6983054, “Toxicity and Antitumor Activity of a Thiophene–Acridine Hybrid” (Molecules, 2019).
pIC50: −log10 of the molar value.

Key:
[1] = test system: HCT-116 cells (human colon carcinoma cell line); assay: MTT cytotoxicity assay, HCT-116; assay type: cell-based; conditions: HCT-116, MTT, 72 h, read-out: IC50
Text: Colorectal carcinoma cells (HCT-116), chronic myelogenous leukemia (K562), and acute promyelocytic leukemia (HL-60) were generously provided by Dr. Manoel de Moraes (Federal University of Ceará, Fortaleza, Brazil) and cultured in Roswell Park Memorial Institute 1640 (RPMI 1640; Sigma Aldrich, St. Louis, MO, USA) medium supplemented with 10% fetal bovine serum (GIBCO, Grand Island, NY, USA) and 1% penicillin–streptomycin (Sigma Aldrich, St. Louis, MO, USA). Human keratinocyte cells (HaCaT; provided by Dr. Jaciana Aguiar from Federal University of Pernambuco, Recife, Pernambuco, Brazil), cervical cancer cells (HeLa; purchased from the cell bank of Rio de Janeiro, Rio de Janeiro, Brazil), and breast cancer cells (MCF-7; provided by Dr. João Ernesto de Carvalho from University of Campinas, Campinas, São Paulo, Brazil) were grown and maintained in Dulbecco’s Modified Eagle’s Medium (DMEM; Sigma Aldrich, St. Louis, MO, USA) supplemented with 10% fetal bovine serum (GIBCO, Grand Island, NY, USA) and 1% penicillin–streptomycin (Sigma Aldrich, St. Louis, MO, USA). All cell types were maintained in 5% CO2 at 37 °C with humidity.
MTT (3-(4,5-dimethylthiazol-2-yl)-2,5-diphenyltetrazolium bromide) reduction assay was used to evaluate the cytotoxicity of ACS03 and its precursors (2-amino-5,6,7,8-tetrahydro-4H-cyclohepta[b]thiophene-3-carbonitrile and 6,9-dichloro-2-methoxyacridine) against tumor and non-tumor cell lines and PBMC. For the MTT assay, cell lines (3 × 10^5 cells/mL) and PBMC (1 × 10^6 cells/mL) were seeded on 96-well plates and cultured for 24 h. ACS03 (3.125–200 µM) was added to the cell cultures and incubated for 72 h. After incubation, 110 µL of the supernatant was removed and 10 μL of the MTT reagent (Sigma Aldrich, St. Louis, MO, USA) was added to each well, and the plates were then incubated at 37 °C. Following 3 h incubation, 100 μL of sodium dodecyl sulfate (SDS) was added to dissolve the formazan crystals produced and left overnight to incubate. The amount of formazan is proportional to the number of viable cells present. The optical density was measured using a microplate spectrophotometer reader (Microplate reader BioTek Instruments, Sinergy HT, Winooski, VT, USA) at λ = 570 nm and used to calculate the IC50 (half maximal inhibitory concentration).

[2] = test system: nitrite (nitric oxide); assay: Nitrite levels in ascitic fluid, Ehrlich ascites carcinoma model (Griess); assay type: in vivo, mice (Mus musculus); conditions: peritoneal fluid, 25 mg/kg; control 36.09 ± 0.72 µM
Procedure: The nitrite concentration in the ascitic fluid was measured using Griess reagent. For this, the peritoneal fluid of control and treated animals (12.5 mg/kg ACS03 and 25 mg/kg 5-FU) was used. The optical density was measured using a microplate spectrophotometer reader (Microplate reader BioTek Instruments, Sinergy HT, Winooski, VT, USA) at λ = 560 nm. Concentrations of nitrite were calculated from a standard curve previously established with known molar concentrations of sodium nitrite. The tests were done in quadruplicate and the values expressed in µM [51].

| SMILES | pIC50 [1] | nitrite concentration [2] [µM] |
| --- | --- | --- |
| N#Cc1c(N)sc2c1CCCCC2 [2-amino-thiophene, 2-amino-5,6,7,8-tetrahydro-4H-cyclohepta[b]thiophene-3-carbonitrile] | < 3.00 |  |
| O=c1[nH]cc(F)c(=O)[nH]1 [5-FU, 5-fluorouracil, reference compound] |  | 16.3 ± 2.91 |
